Source: article PMC8172577, “A Novel Antimicrobial Peptides From Pine Needles of Pinus densiflora Sieb. et Zucc. Against Foodborne Bacteria” (Frontiers in Microbiology, 2021)
≈ marks a conversion by molar mass, not a printed value. Read-outs that look alike come from different tables or passages of the source. Where no end group is shown, it is not given here.

Key:
Format in all cases: cell-based
[1] = system: RAW264.7 (mouse macrophages) cells; test: Cytotoxicity, MTT assay, RAW264.7; conditions: 12.5 μg/ml, 24 h
Description: (§1) The cytotoxic effect of PN peptides was assessed against HaCaT (human keratinocytes) and RAW264.7 (mouse macrophages) cells cultured in 96-well plates at a density of 2 × 10^4 cells/well in Dulbecco’s modified Eagle medium (DMEM) containing 10% fetal bovine serum. MTT [3-(4,5-dimethylthiazol-2-yl)-2,5-diphenyltetrazolium bromide] assays were used to evaluate cytotoxicity. PN peptides (0–200 μg/ml) were added with the cells for 24 h at 37°C. Subsequently, MTT (0.5 mg/ml) was added to each well and incubated for 4 h at 37°C After incubation, formazan crystals produced was dissolved in dimethyl sulfoxide, and the absorbance at 570 nm was measured and cytotoxicity was determined as a percentage of 100% cytotoxic control (0.1% Triton X-100; [Park et al., 2008]). Melittin was used as the control (reference) peptide.

[2] = system: Salmonella typhimurium KCTC1926; conditions: minimal concentration of peptide to inhibit microbial growth; 5 × 10^5 CFU/ml, 18 h at 37°C, OD 600 nm
Description: (§2) For antimicrobial assays, Escherichia coli ATCC 25922, Pseudomonas aeruginosa ATCC 15692, Staphylococcus aureus ATCC 25923, and Staphylococcus epidermidis ATCC 12228 were obtained from the American Type Culture Collection (Manassas, VA, United States). Salmonella typhimurium KCTC 1926 and Listeria monocytogenes KCTC 3710 were obtained from the Korean Collection for Type Cultures (Jeollabuk-do, Korea).
(§3) Minimum inhibitory concentrations (MICs) of purified PN peptides were assayed according to the Clinical and Laboratory Standards Institute recommendations ([Wiegand et al., 2008]). Briefly, bacterial suspension (5 × 10^5 CFU/ml), obtained by diluting an exponential growth phase culture, was then added into the 96-well plates containing 2-fold serial dilutions of each fraction, the plates were incubated for 18 h at 37°C. MICs of PN peptides were measured in optical density at 600 nm using Versamax™ ELISA Microplate Reader (Molecular Devices, Sunnyvale, CA, United States). PBS, culture media, and melittin were used as growth and growth inhibition controls. The MIC was defined as the lowest concentration of PN peptide that was able to inhibit microbial growth.

[3] = system: Listeria monocytogenes KCTC3710; conditions: minimal concentration of peptide to inhibit microbial growth; 5 × 10^5 CFU/ml, 18 h at 37°C, OD 600 nm
Description: as §2, §3

[4] = system: HaCaT (human keratinocytes) cells; test: Cytotoxicity, MTT assay, HaCaT
Description: as §1

[5] = system: mouse red blood cells (mRBCs); test: Hemolytic activity; conditions: 60 min at 37°C
Description: Hemolysis was determined using the mouse red blood cells (mRBCs). Fresh mRBCs were collected in PBS and washed three times with PBS (final mRBC concentration, 8% v/v). […] Hemolytic activity was monitored at an absorbance (A) of 414 nm and calculated as a positive control [0.1% Triton X-100 (Atriton)] and negative control [PBS (Ablank)]. The resulting values of cells that underwent hemolysis were calculated according to equation ([Park et al., 2008]):
(1) Hemolysis=[(Asample−Ablank)/(Atriton−Ablank)]×100%

[6] = system: Escherichia coli ATCC25922; conditions: minimal concentration of peptide to inhibit microbial growth; 5 × 10^5 CFU/ml, 18 h at 37°C, OD 600 nm
Description: as §2, §3

[7] = system: Staphylococcus aureus ATCC25923; conditions: for Increased in MIC (fold): compared to the soluble extract
Description: as §2, §3

[8] = minimal concentration of peptide to inhibit microbial growth, 5 × 10^5 CFU/ml, 18 h at 37°C, OD 600 nm

In the case of `CC[C@H](C)[C@H](NC(=O)CN)C(=O)NCC(=O)N[C@@H](C)C(=O)N[C@H](C(=O)N[C@@H](CC(C)C)C(=O)N[C@@H](CCCCN)C(=O)N[C@H](C(=O)N[C@@H](CC(C)C)C(=O)N[C@H](C(=O)N[C@H](C(=O)NCC(=O)N[C@@H](CC(C)C)C(=O)N1CCC[C@H]1C(=O)N[C@@H](C)C(=O)N[C@@H](CC(C)C)C(=O)N[C@H](C(=O)N[C@@H](CO)C(=O)N[C@@H](Cc1c[nH]c2ccccc12)C(=O)N[C@H](C(=O)N[C@@H](CCCCN)C(=O)N[C@@H](CCCNC(=N)N)C(=O)N[C@@H](CCCCN)C(=O)N[C@@H](CCCNC(=N)N)C(=O)N[C@@H](CCC(N)=O)C(=O)N[C@@H](CCC(N)=O)C(N)=O)[C@@H](C)CC)[C@@H](C)CC)[C@@H](C)O)[C@@H](C)O)C(C)C)C(C)C` [Melittin, reference compound], the “lysis (cytotoxicity)” value [1] is reported as 100%, the MIC [2] is reported as 2 µg/mL (≈ 0.703 µM) and the MIC [3] is reported as 4 µg/mL (≈ 1.41 µM). The “lysis (cytotoxicity)” value ([4]; 12.5 μg/ml, 24 h) was 100% and the “hemolysis at the lowest concentration” value ([5]; 3 μg/ml, 8% v/v mRBCs) was “induced hemolysis”.
For FKFLARTGKFL [PN5], the MIC [6] was 64 µg/mL, the MIC [2] was 64 µg/mL and the MIC [7, 8] was 32 µg/mL. The MIC [3] was 32 µg/mL, the cytotoxicity ([4]; 200 μg/ml, 24 h at 37°C, vs 0.1% Triton X-100, n = 3) was 19% and the hemolysis ([5]; 200 μg/ml, 8% v/v mRBCs in PBS, A414, vs 0.1% Triton X-100, n = 3) was “approximately 5%”.
With “FKFLARTGKFL [PN-#5, peptide purified from pine needles of Pinus densiflora by RP-HPLC, peak 5]” the MIC [6] was 64 µg/mL, the MIC [2] was 64 µg/mL and the “Increased in MIC (fold)” value ([7]; after First C18 RP-HPLC) was 12.5 fold. The “Increased in MIC (fold)” value ([7]; after Second C18 RP-HPLC) was 234.4 fold, the MIC ([7]; fraction after First C18 RP-HPLC, S. aureus ATCC25923) was 600 µg/mL and the MIC ([7]; fraction after Second C18 RP-HPLC, S. aureus ATCC25923) was 32 µg/mL. It also gave an MIC [7, 8] of 32 µg/mL and an MIC [3] of 32 µg/mL.
Molecule FKFLARTGKFL-NH2 [PN5-NH2] has an MIC [6] of 64 µg/mL, an MIC [2] of 32 µg/mL and an MIC [7, 8] of 16 µg/mL. For the same molecule, the MIC [3] was 32 µg/mL.
